Results taken from PubChem BioAssay (NCI).
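Growth conditions: 96-well plates. Treatment: test compound, 48 hours, 5 concentrations. Analysis: linear interpolation between bracketing concentrations; unreached endpoints set to highest concentration. Here, GI50 denotes the concentration required for 50% inhibition of growth. TGI marks complete inhibition of growth.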

How the values were obtained:
Assay in all cases: inhibition of tumour cell growth, NCI panel, 48 h
OVCAR-4 ovarian = test system: OVCAR-4 ovarian
MDA-MB-435 = test system: MDA-MB-435
SNB-19 CNS = test system: SNB-19 CNS
CCRF-CEM leukemia = test system: CCRF-CEM leukemia
K-562 leukemia = test system: K-562 leukemia
SK-MEL-28 melanoma = test system: SK-MEL-28 melanoma
SF-295 CNS = test system: SF-295 CNS
HOP-62 NSCLC = test system: HOP-62 NSCLC
A549 NSCLC = test system: A549 NSCLC
OVCAR-3 ovarian = test system: OVCAR-3 ovarian

Structure (SMILES)	TGI (OVCAR-4 ovarian) [µM]	TGI (MDA-MB-435) [µM]	TGI (SNB-19 CNS) [µM]	TGI (CCRF-CEM leukemia) [µM]	TGI (K-562 leukemia) [µM]	TGI (SK-MEL-28 melanoma) [µM]	TGI (SF-295 CNS) [µM]	TGI (HOP-62 NSCLC) [µM]	TGI (A549 NSCLC) [µM]	TGI (OVCAR-3 ovarian) [µM]	GI50 (OVCAR-4 ovarian) [µM]	GI50 (MDA-MB-435) [nM]	GI50 (SNB-19 CNS) [µM]	GI50 (CCRF-CEM leukemia) [µM]	GI50 (K-562 leukemia) [nM]	GI50 (SK-MEL-28 melanoma) [µM]	GI50 (SF-295 CNS) [nM]	GI50 (HOP-62 NSCLC) [µM]	GI50 (A549 NSCLC) [µM]	GI50 (OVCAR-3 ovarian) [nM]
COc1ccc(-c2coc3c4c(ccc3c2=O)OCO4)cc1OC	> 100	> 100	82	> 100	> 100	> 100	> 100	> 100	> 100	> 100										
CCn1sc2ccccc2c1=O	89.8	5.82	32.9	> 48.2	> 100	36	> 55.1	34.3	40.4	29.7										
O=C(O)c1ccc(OCc2ccccc2)c(Cl)c1	> 100	> 100	> 100	> 100	> 100	> 100	> 100	> 100	> 100	> 100										
O=CN1CCN(CC(O)CN2CCCCC2)CC1 (stereo not given)	> 100	> 100	> 100	> 100	> 100	> 100	> 100	> 100	> 100	> 100										
CCN1C(=O)N(CC)C2C1NN=c1s/c(=C3\C(=O)N(CC(C)(C)C)c4ccccc43)c(=O)n12 (stereo not given)	66.6	7.1	16	> 100	20.9	22	12.6	22.8	36.4	12.1	7.77	1540	4.05	3.62	1650	6.94	2840	4.93	4.35	3170
CSc1ccc2c(c1)C(=O)c1c-2n(CCCBr)c(=O)c2cc([N+](=O)[O-])ccc12	> 100	> 100	> 100	> 100	19.3	> 100	> 100	19.6	> 100	> 100	> 100	31000	3.78	0.451	3940	51.8	1040	1.05	7.61	> 100000
CCCCCOc1ccc(/C=N/Nc2cc(C)nc3ccc(Br)cc23)cc1	3.27	3.18	3.71	3.51	2.83	3.1	3.5	3.37	3.69	3.37	1.76	1760	1.96	1.54	1240	1.65	1810	1.73	1.9	1920
CCOC(=O)/C=C(/C)Sc1cc(O)c2ccccc2c1O	13.2	3.28	17	6.83	6.68	5.45	26.4	12.9	5.99	5.1	3.36	1750	4.05	2.73	2480	2.34	12400	3.02	2.5	2000
Cc1cc(C)c(NC(=O)c2sc3nc4c(cc3c2N)CN(Cc2ccccc2)CC4)c(C)c1	> 100	4.38	> 100	59.7	> 100	40.4	64.7	> 100	> 100	12.6	6.72	399	7.21	3.16	903	6.97	1890	7.73	4.11	2320
O=C1c2ccccc2-c2c1c1ccccc1c(=O)n2CCCCl	> 100	> 100	> 100	> 100	> 100	> 100	23.1	6.57	16	8.18	> 100	28000	34.2	3.86	12700	> 100	6340	1.77	3.23	3230
O=C1NC(=NCCc2cccc(Cl)c2)S/C1=C\c1ccc2ncccc2c1	> 25	> 25	> 25	> 25	> 25	> 25	> 25	> 25	> 25	> 25	> 25	635	> 25	> 25	1170	> 25	> 25000	> 25	> 25	> 25000
